Experiments:
TNF = test: PBMC assay: TNF cytokine levels in LPS-stimulated human PBMCs (MSD); format: cell-based; conditions: 100 ng/ml LPS for 6 hrs, TNF in supernatant via MSD
Outline: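 Cryopreserved healthy-donor human PBMCs (7.5×10^4 cells/well, RPMI + 10% FBS) were preincubated with 1:3 serially diluted compounds for 30 min at 37 °C. They were then stimulated with 100 ng/ml LPS (final) for 6 h. Supernatant TNF was measured by MSD, and EC50 values were derived.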

NLRP3 inflammasome = test: PBMC assay: IL-1β in LPS-stimulated human PBMCs (MSD); format: cell-based; conditions: human PBMCs, 100 ng/ml LPS for 6 hrs, IL-1β in supernatant via MSD, read-out: IL1β IC50
Outline: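 Human PBMCs from healthy donors, Ficoll-isolated and cryopreserved, were plated at 7.5×10^4 cells/well in RPMI/10% FBS for 30 min at 37 °C. Cells were then stimulated with 100 ng/ml LPS (final) for 6 h. IL-1β and TNF in supernatants were quantified by MSD immunoassay.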

With CC(C)c1nn(CC(=O)Nc2ccncn2)c(=O)c2cc(C(C)O)nn12 (centres unmarked) [Final Cpd 185, 2-(2-(1-hydroxyethyl)-7-sopropyl-4-oxopyrazolo[1,5-d][1,2,4]triazin-5(4H)-yl)-N-(pyrimidin-4-yl)acetamide] the EC50 (TNF) was > 10 µM and the IC50 (NLRP3 inflammasome) was 4.11 µM.

For CC(C)c1nn(CC(=O)Nc2ccncn2)c(=O)c2cc(N)nn12 [Final Cpd 186, 2-(2-amino-7-isopropyl-4-oxopyrazolo[1,5-d][1,2,4]triazin-5(4H)-yl)-N-(pyrimidin-4-yl)acetamide], the EC50 (TNF) was > 10 µM and the IC50 (NLRP3 inflammasome) was > 10 µM.

CC(C)c1nn(CC(=O)N[C@@H]2CCCNC2)c(=O)c2cc(C3CC3)nn12 [Final Cpd 187, (R)-2-(2-cyclopropyl-7-isopropyl-4-oxopyrazolo[1,5-d][1,2,4]triazin-5(4H)-yl)-N-(piperidin-3-yl)acetamide] was tested, and the EC50 (TNF) was > 10 µM and the IC50 (NLRP3 inflammasome) was 0.8 µM.

In the case of CC(C)c1nn(CC(=O)N[C@H]2CNCC[C@H]2O)c(=O)c2cc(C3CC3)nn12 [Final Cpd 188], the EC50 (TNF) is reported as > 10 µM and the IC50 (NLRP3 inflammasome) is reported as 0.74 µM.

In the case of CC(C)c1nn(CC(=O)N[C@@H]2CCCN(CC(F)(F)F)C2)c(=O)c2cc(C3CC3)nn12 [Final Cpd 189, (R)-2-(2-cyclopropyl-7-isopropyl-4-oxopyrazolo[1,5-d][1,2,4]triazin-5(4H)-yl)-N-(1-(2,2,2-trifluoroethyl)piperidin-3-yl)acetamide], the EC50 (TNF) is reported as > 10 µM and the IC50 (NLRP3 inflammasome) is reported as 1.16 µM.

CCN1CC[C@@H](O)[C@@H](NC(=O)Cn2nc(C(C)C)n3nc(C4CC4)cc3c2=O)C1 [Final Cpd 190, 2-(2-cyclopropyl-7-isopropyl-4-oxopyrazolo[1,5-d][1,2,4]triazin-5(4H)-yl)-N-((3S,4R)-1-ethyl-4-hydroxypiperidin-3-yl)acetamide] was tested, and the EC50 (TNF) was > 10 µM and the IC50 (NLRP3 inflammasome) was 0.054 µM.

For CC[C@]1(O)C[C@@H](NC(=O)Cn2nc(C(C)C)n3nc(C4CC4)cc3c2=O)C1 [Final Cpd 192, 2-(2-cyclopropyl-7-isopropyl-4-oxopyrazolo[1,5-d][1,2,4]triazin-5(4H)-yl)-N-((1r,3s)-3-ethyl-3-hydroxycyclobutyl)acetamide], the EC50 (TNF) was > 10 µM and the IC50 (NLRP3 inflammasome) was 0.61 µM.

For CC(C)c1nn(CC(=O)Nc2cc(C#N)c3nncn3c2)c(=O)c2cc(C3CC3)nn12 [Final Cpd 193, N-(8-cyano-[1,2,4]triazolo[4,3-a]pyridin-6-yl)-2-(2-cyclopropyl-7-isopropyl-4-oxopyrazolo[1,5-d][1,2,4]triazin-5(4H)-yl)acetamide], the EC50 (TNF) was > 10 µM and the IC50 (NLRP3 inflammasome) was 0.98 µM.

With COCCCc1nn(CC(=O)N[C@H]2C[C@@](C)(O)C2)c(=O)c2cc(C3CC3)nn12 [Final Cpd 194, 2-(2-cyclopropyl-7-(3-methoxypropyl)-4-oxopyrazolo[1,5-d][1,2,4]triazin-5(4H)-yl)-N-((ls,3s)-3-hydroxy-3-methylcyclobutyl)acetamide] the EC50 (TNF) was > 10 µM and the IC50 (NLRP3 inflammasome) was > 10 µM.

With C[C@]1(O)C[C@@H](NC(=O)Cn2nc(CCCC(F)(F)F)n3nc(C4CC4)cc3c2=O)C1 [Final Cpd 195, 2-(2-cyclopropyl-4-oxo-7-(4,4,4-trifluorobutyl)pyrazolo[1,5-d][1,2,4]triazin-5(4H)-yl)-N-((ls,3s)-3-hydroxy-3-methylcyclobutyl)acetamide] the EC50 (TNF) was > 10 µM and the IC50 (NLRP3 inflammasome) was > 10 µM.

In the case of CCCCc1nn(CC(=O)N[C@H]2C[C@@](C)(O)C2)c(=O)c2cc(C3CC3)nn12 [Final Cpd 196], the EC50 (TNF) is reported as > 10 µM and the IC50 (NLRP3 inflammasome) is reported as > 10 µM.

With C[C@]1(O)C[C@@H](NC(=O)Cn2nc(CC3CCOC3)n3nc(C4CC4)cc3c2=O)C1 (some centres unmarked) [Final Cpd 197] the EC50 (TNF) was > 10 µM and the IC50 (NLRP3 inflammasome) was > 10 µM.

C[C@]1(O)C[C@@H](NC(=O)Cn2nc(CC3CCC3)n3nc(C4CC4)cc3c2=O)C1 [Final Cpd 198] was tested, and the EC50 (TNF) was > 10 µM and the IC50 (NLRP3 inflammasome) was > 10 µM.

With COc1ccc(-c2nn(CC(=O)N[C@H]3C[C@@](C)(O)C3)c(=O)c3cc(C4CC4)nn23)cc1 [Final Cpd 199, 2-(2-cyclopropyl-7-(4-methoxyphenyl)-4-oxopyrazolo [1,5-d] [1,2,4]triazin-5(4H)-yl)-N-((1 s,3 s)-3-hydroxy-3-methylcyclobutyl)acetamide] the EC50 (TNF) was > 10 µM and the IC50 (NLRP3 inflammasome) was > 10 µM.

In the case of C=CC(C)c1nn(CC(=O)N[C@H]2C[C@@](C)(O)C2)c(=O)c2cc(C3CC3)nn12 (some centres unmarked) [Final Cpd 200], the EC50 (TNF) is reported as > 10 µM and the IC50 (NLRP3 inflammasome) is reported as > 10 µM.

CCC(C)c1nn(CC(=O)N[C@H]2C[C@@](C)(O)C2)c(=O)c2cc(C3CC3)nn12 (some centres unmarked) [Final Cpd 201] was tested, and the EC50 (TNF) was > 10 µM and the IC50 (NLRP3 inflammasome) was > 10 µM.

Source: patent US20230203044A1, “PYRAZOLO[1,5-D][1,2,4]TRIAZINE-5(4H)-ACETAMIDES AS INHIBITORS OF THE NLRP3 INFLAMMASOME” (JANSSEN PHARMACEUTICA NV, priority 2020, published 2023)
